Entries after “also recorded” stand apart in the source; their conditions may differ.
Legend:
[1] = tested on: C3H/HeJ mice after bilateral removal of SCG (SCGx); assay: Assessment of diurnal rhythm after bilateral removal of SCG (SCGx); assay type: in vivo; settings: 50 μg melatonin once intraperitoneally
[2] = tested on: nicotine-stimulated sympathetic neurons co-cultured with LPS-preactivated macrophages; assay: Co-culture of sympathetic neurons and bone marrow-derived macrophages; assay type: cell-based, mouse; settings: CVF 20 U/ml for 90 min on LPS-preactivated macrophages; 1 μM nicotine; 48 h co-culture
Procedure: For the co-culture experiment, BMDM precursors were isolated and differentiated to macrophages as mentioned above. On day 6 of differentiation, primary neurons were isolated as described above. ˜5,000 neurons were seeded on separate wells of a 96-well Ibidi plate precoated with Laminin (0.1 mg/ml). At day 7 of differentiation, macrophages were either stimulated with PBS (control) or LPS (5 ng/ml) overnight. On the following day, LPS-preactivated macrophages were either incubated with PBS (control) or Cobra Venom Factor (CVF; 20 U/ml) for 90 min at 37° C. for complement inhibition. Afterwards, macrophages were chemically detached from the Petri dishes using Accutase and seeded around neurons. ˜10,000 macrophages were added per well. Co-culture medium was a mixture of neuronal and macrophage medium. Furthermore, part of the co-culture medium was supplemented with 1 μM Nicotine for artificial neuronal stimulation. 4 wells were cultivated per condition. One well per condition was transferred into the EVOS M7000 for live cell imaging (timelapse). […]
After 48 hours of co-culture (at 37° C. and 5% CO2), cells were fixated using 4% Paraformaldehyde. […] For quantification, two tilescans (2×2) per well were acquired using a 63× objective of a confocal microscope (Leica TCS SP5 II) and quantified for neuronal cell number and axonal dimensions using Imaris (Bitplane, version 9.5). […]

## COc1ccc2[nH]cc(CCNC(C)=O)c2c1 [melatonin]
[1]
  diurnal rhythmicity (activity, ratio between dark and light): completely restored; also recorded: rescued

## Cobra venom factor
[2]
  neurite outgrowth (axon length, branching points): rescued
  neuronal cell loss (neuronal cell number per field of view): effectively prevented
